Assay results: ChEMBL document CHEMBL1201862, “PubChem BioAssay data set” (2004)
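48-hour exposure; five concentrations; linearly interpolated endpoints. Abbreviation: GI50, concentration required for 50% inhibition of growth.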 The source made the active and inactive calls. No stated cut-off is given here; in the data, active = GI50 up to about 1.1 µM and inactive = higher.

How the values were obtained:
Assay in all cases: DTP human tumour cell line panel, 48 h
SK-MEL-5 = test system: SK-MEL-5
A498 = test system: A498
SW-620 = test system: SW-620
SF-268 = test system: SF-268
IGROV-1 = test system: IGROV-1
K562 = test system: K562
NCI-H23 = test system: NCI-H23
CCRF-CEM = test system: CCRF-CEM
MCF7 = test system: MCF7
HOP-62 = test system: HOP-62
HCT-116 = test system: HCT-116
U-251 = test system: U-251
Malme-3M = test system: Malme-3M
M14 = test system: M14
LOX IMVI = test system: LOX IMVI
OVCAR-8 = test system: OVCAR-8
NCI-H226 = test system: NCI-H226
UACC-62 = test system: UACC-62
RXF 393 = test system: RXF 393
A549 = test system: A549
T47D = test system: T47D
HL-60 = test system: HL-60
SK-MEL-28 = test system: SK-MEL-28
BT-549 = test system: BT-549
SNB-75 = test system: SNB-75
HCT-15 = test system: HCT-15
PC-3 = test system: PC-3
MDA-MB-435 = test system: MDA-MB-435
HT-29 = test system: HT-29
MOLT-4 = test system: MOLT-4
SF-539 = test system: SF-539
SK-MEL-2 = test system: SK-MEL-2
MDA-N = test system: MDA-N
OVCAR-5 = test system: OVCAR-5
COLO 205 = test system: COLO 205
SK-OV-3 = test system: SK-OV-3
HOP-92 = test system: HOP-92
UO-31 = test system: UO-31
EKVX = test system: EKVX
OVCAR-4 = test system: OVCAR-4
Hs-578T = test system: Hs-578T
RPMI-8226 = test system: RPMI-8226
ACHN = test system: ACHN
SF-295 = test system: SF-295
SN12C = test system: SN12C
NCI/ADR-RES = test system: NCI/ADR-RES
TK-10 = test system: TK-10
UACC-257 = test system: UACC-257
KM12 = test system: KM12
DU-145 = test system: DU-145
SR = test system: SR
MDA-MB-231 = test system: MDA-MB-231
CAKI-1 = test system: CAKI-1
NCI-H522 = test system: NCI-H522
786-0 = test system: 786-0
NCI-H460 = test system: NCI-H460
OVCAR-3 = test system: OVCAR-3
SNB-19 = test system: SNB-19
HCC 2998 = test system: HCC 2998

## c1c[nH]c(CN2CCOCC2)n1
SK-MEL-5
  GI50: > 100 µM (inactive)
A498
  GI50: > 100 µM (inactive)
SW-620
  GI50: > 100 µM (inactive)
SF-268
  GI50: > 100 µM (inactive)
IGROV-1
  GI50: > 100 µM (inactive)
K562
  GI50: > 100 µM (inactive)
NCI-H23
  GI50: > 100 µM (inactive)
CCRF-CEM
  GI50: > 100 µM (inactive)
MCF7
  GI50: > 100 µM (inactive)
HOP-62
  GI50: > 100 µM (inactive)
HCT-116
  GI50: > 100 µM (inactive)
U-251
  GI50: > 100 µM (inactive)
Malme-3M
  GI50: > 100 µM (inactive)
M14
  GI50: > 100 µM (inactive)
LOX IMVI
  GI50: > 100 µM (inactive)
OVCAR-8
  GI50: > 100 µM (inactive)
NCI-H226
  GI50: > 100 µM (inactive)
UACC-62
  GI50: > 100 µM (inactive)
RXF 393
  GI50: > 100 µM (inactive)
A549
  GI50: > 100 µM (inactive)
T47D
  GI50: > 100 µM (inactive)
HL-60
  GI50: > 100 µM (inactive)
SK-MEL-28
  GI50: > 100 µM (inactive)
BT-549
  GI50: > 100 µM (inactive)
SNB-75
  GI50: > 100 µM (inactive)
HCT-15
  GI50: > 100 µM
PC-3
  GI50: > 100 µM (inactive)
MDA-MB-435
  GI50: > 100 µM (inactive)
HT-29
  GI50: > 100 µM (inactive)
MOLT-4
  GI50: > 100 µM (inactive)
SF-539
  GI50: > 100 µM (inactive)
SK-MEL-2
  GI50: > 100 µM (inactive)
MDA-N
  GI50: > 100 µM (inactive)
OVCAR-5
  GI50: > 100 µM (inactive)
COLO 205
  GI50: > 100 µM (inactive)
SK-OV-3
  GI50: > 100 µM (inactive)
HOP-92
  GI50: > 100 µM (inactive)
UO-31
  GI50: > 100 µM (inactive)
EKVX
  GI50: > 100 µM (inactive)
OVCAR-4
  GI50: > 100 µM (inactive)
Hs-578T
  GI50: > 100 µM (inactive)
RPMI-8226
  GI50: > 100 µM (inactive)
ACHN
  GI50: > 100 µM (inactive)
SF-295
  GI50: > 100 µM (inactive)
SN12C
  GI50: > 100 µM (inactive)
NCI/ADR-RES
  GI50: > 100 µM (inactive)
TK-10
  GI50: > 100 µM (inactive)
UACC-257
  GI50: > 100 µM (inactive)
KM12
  GI50: > 100 µM (inactive)
DU-145
  GI50: > 100 µM (inactive)
SR
  GI50: > 100 µM (inactive)
MDA-MB-231
  GI50: > 100 µM (inactive)
CAKI-1
  GI50: > 100 µM (inactive)
NCI-H522
  GI50: > 100 µM (inactive)
786-0
  GI50: > 100 µM (inactive)
NCI-H460
  GI50: > 100 µM (inactive)
OVCAR-3
  GI50: > 100 µM (inactive)
SNB-19
  GI50: > 100 µM (inactive)

## COc1ccc2c(c1)[C@@]13CCN4CC5=CCO[C@H]6CC(=O)N2[C@H]1[C@H]6[C@H]5C[C@H]43
SK-MEL-5
  GI50: > 100 µM (inactive)
A498
  GI50: 69.2 µM (inactive)
SW-620
  GI50: > 100 µM (inactive)
SF-268
  GI50: > 100 µM (inactive)
IGROV-1
  GI50: 34.9 µM (inactive)
NCI-H23
  GI50: > 100 µM (inactive)
CCRF-CEM
  GI50: 88.5 µM (inactive)
MCF7
  GI50: > 100 µM (inactive)
HOP-62
  GI50: > 100 µM (inactive)
HCT-116
  GI50: > 100 µM (inactive)
U-251
  GI50: > 100 µM (inactive)
Malme-3M
  GI50: 90.4 µM (inactive)
M14
  GI50: > 100 µM (inactive)
LOX IMVI
  GI50: > 100 µM (inactive)
OVCAR-8
  GI50: 59.2 µM (inactive)
NCI-H226
  GI50: 0.178 µM (active)
UACC-62
  GI50: > 100 µM (inactive)
RXF 393
  GI50: > 100 µM (inactive)
A549
  GI50: > 100 µM (inactive)
HCC 2998
  GI50: > 100 µM (inactive)
T47D
  GI50: > 100 µM (inactive)
HL-60
  GI50: 18.1 µM (inactive)
SK-MEL-28
  GI50: 80.5 µM (inactive)
BT-549
  GI50: > 100 µM (inactive)
HCT-15
  GI50: > 100 µM
PC-3
  GI50: > 100 µM (inactive)
MDA-MB-435
  GI50: > 100 µM (inactive)
HT-29
  GI50: 37.2 µM (inactive)
MOLT-4
  GI50: 18.6 µM (inactive)
SF-539
  GI50: > 100 µM (inactive)
SK-MEL-2
  GI50: > 100 µM (inactive)
MDA-N
  GI50: > 100 µM (inactive)
OVCAR-5
  GI50: > 100 µM (inactive)
COLO 205
  GI50: 84.9 µM (inactive)
SK-OV-3
  GI50: > 100 µM (inactive)
HOP-92
  GI50: 95.7 µM (inactive)
UO-31
  GI50: > 100 µM (inactive)
EKVX
  GI50: 44.4 µM (inactive)
OVCAR-4
  GI50: > 100 µM (inactive)
Hs-578T
  GI50: 33.7 µM (inactive)
RPMI-8226
  GI50: > 100 µM (inactive)
ACHN
  GI50: > 100 µM (inactive)
SF-295
  GI50: 70 µM (inactive)
SN12C
  GI50: > 100 µM (inactive)
NCI/ADR-RES
  GI50: 47.2 µM (inactive)
TK-10
  GI50: 76.6 µM (inactive)
UACC-257
  GI50: > 100 µM (inactive)
KM12
  GI50: > 100 µM (inactive)
DU-145
  GI50: > 100 µM (inactive)
SR
  GI50: 27.5 µM (inactive)
MDA-MB-231
  GI50: > 100 µM (inactive)
CAKI-1
  GI50: > 100 µM (inactive)
NCI-H522
  GI50: 72.3 µM (inactive)
786-0
  GI50: > 100 µM (inactive)
NCI-H460
  GI50: > 100 µM (inactive)
OVCAR-3
  GI50: > 100 µM (inactive)
SNB-19
  GI50: > 100 µM (inactive)
